Data set [1] in a line: Study 1: pharmacokinetics of octreotide delivered via RP or IV injection (plasma LC/MS/MS). To be noted: human, in vivo, 100 ug. The method, then:
This was a single-center, open-label study.
Fluoroscopic imaging was performed with Siemens AXIOM Artis dMP using standard abdominal protocol.
Serial blood samples for PK analysis were collected immediately before the injection and at 5, 10, 15, 20, 25, 30, 40, 50, 60, 90, 120, 150, 180, and 240 min after dosing.
Blood samples were collected into potassium-EDTA treated lavender top tubes, plasma was separated via centrifugation and aliquots stored at −80℃ until analyzed. […] The analysis was performed using an API 5000 mass spectrometer from Applied Biosystems.
MS Excel (2016) and GraphPad (Version 8.4.3) were used for data analysis. Categorical data are expressed as counts and percentages, and continuous data as mean ± standard deviation (SD) or standard error (SE), as indicated. PK parameters were calculated using noncompartmental analysis (NCA) implemented within a validated installation of Phoenix® WinNonlin. The Cmax (peak plasma concentration) and Tmax (time to reach Cmax) were obtained graphically from the concentration vs. time profiles. Unpaired t tests were used to determine differences between groups with a p value of 0.05 or less deemed as significant.

The conditions of data set [2]: in vivo, cited from earlier work. The method, then:
For example, subjects need to take oral semaglutide at least 30 min before the first food, beverage, or other or ...

As usually defined, the Cmax is the maximum level reached in the sampled fluid or tissue. The Tmax is the time at which the peak concentration occurs. On to `C[C@@H](O)[C@@H]1NC(=O)[C@H](CCCCN)NC(=O)[C@@H](Cc2c[nH]c3ccccc23)NC(=O)[C@H](Cc2ccccc2)NC(=O)[C@@H](NC(=O)[C@H](N)Cc2ccccc2)CSSC[C@@H](C(=O)N[C@H](CO)[C@@H](C)O)NC1=O` [octreotide], for which, in data set [1], the highest concentration (Cmax) was 11.1 ng/mL and the Tmax was 5 min.

A word on the half-life: it is how long it takes for the measured level to halve. Take semaglutide: in data set [2] (po), the bioavailability is recorded as ~ 1%. Besides, in data set [2], the half-life is 170 h.

These data come from article PMC8677648, “A robotic pill for oral delivery of biotherapeutics: safety, tolerability, and performance in healthy subjects” (Drug Delivery and Translational Research, 2021).
